Results published in PubChem BioAssay (NCI).
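Five compound concentrations were applied to cells in 96-well plates for 48 hours; endpoints were derived by simple linear interpolation of the resulting dose-response curve. The concentration for 50% growth inhibition is given as GI50. The concentration for full growth arrest is given as TGI.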

Assays:
Assay in all cases: inhibition of tumour cell growth, NCI panel, 48 h
SNB-19 CNS = system: SNB-19 CNS
XF 498 CNS = system: XF 498 CNS
HT29 colon = system: HT29 colon
OVCAR-8 ovarian = system: OVCAR-8 ovarian
PC-3 prostate = system: PC-3 prostate
UO-31 renal = system: UO-31 renal
M19-MEL melanoma = system: M19-MEL melanoma
K-562 leukemia = system: K-562 leukemia
EKVX NSCLC = system: EKVX NSCLC
A549 NSCLC = system: A549 NSCLC
UACC-62 melanoma = system: UACC-62 melanoma
NCI-H522 lung = system: NCI-H522 lung
SF-268 CNS = system: SF-268 CNS
UACC-257 melanoma = system: UACC-257 melanoma
OVCAR-3 ovarian = system: OVCAR-3 ovarian
HL-60(TB) leukemia = system: HL-60(TB) leukemia
OVCAR-5 ovarian = system: OVCAR-5 ovarian
SF-539 CNS = system: SF-539 CNS
SK-MEL-5 melanoma = system: SK-MEL-5 melanoma
MALME-3M melanoma = system: MALME-3M melanoma
HCC-2998 colon = system: HCC-2998 colon
MCF7 breast = system: MCF7 breast
CCRF-CEM leukemia = system: CCRF-CEM leukemia
SN12C renal = system: SN12C renal
SK-MEL-2 melanoma = system: SK-MEL-2 melanoma
NCI-H460 lung = system: NCI-H460 lung
NCI-H226 lung = system: NCI-H226 lung
TK-10 renal = system: TK-10 renal
MDA-MB-231 breast = system: MDA-MB-231 breast
DU-145 prostate = system: DU-145 prostate
SF-295 CNS = system: SF-295 CNS
CAKI-1 renal = system: CAKI-1 renal
HCT-116 colon = system: HCT-116 colon
HS 578T breast = system: HS 578T breast
HOP-62 NSCLC = system: HOP-62 NSCLC
DMS 114 small cell lung = system: DMS 114 small cell lung
A498 renal = system: A498 renal
SK-OV-3 ovarian = system: SK-OV-3 ovarian
NCI/ADR-RES ovarian = system: NCI/ADR-RES ovarian
SW-620 colon = system: SW-620 colon
KM20L2 colon = system: KM20L2 colon
SNB-78 CNS = system: SNB-78 CNS
MOLT-4 leukemia = system: MOLT-4 leukemia
LXFL 529 NSCLC = system: LXFL 529 NSCLC
T-47D breast = system: T-47D breast
HOP-18 NSCLC = system: HOP-18 NSCLC
KM12 colon = system: KM12 colon
M14 melanoma = system: M14 melanoma
RPMI-8226 leukemia = system: RPMI-8226 leukemia
OVCAR-4 ovarian = system: OVCAR-4 ovarian
BT-549 breast = system: BT-549 breast
786-0 renal = system: 786-0 renal
SK-MEL-28 melanoma = system: SK-MEL-28 melanoma
HCT-15 colon = system: HCT-15 colon
SNB-75 CNS = system: SNB-75 CNS
LOX IMVI melanoma = system: LOX IMVI melanoma
IGROV1 ovarian = system: IGROV1 ovarian
RXF 393 renal = system: RXF 393 renal
MDA-MB-435 = system: MDA-MB-435
SR leukemia = system: SR leukemia
DLD-1 colon = system: DLD-1 colon
HOP-92 NSCLC = system: HOP-92 NSCLC
U251 CNS = system: U251 CNS
NCI-H23 lung = system: NCI-H23 lung
MDA-N = system: MDA-N
COLO 205 colon = system: COLO 205 colon
ACHN renal = system: ACHN renal
DMS 273 small cell lung = system: DMS 273 small cell lung

Compound: O=c1[nH]c(=O)n(C2OC(CO)C(O)C(O)C2O)cc1F (centres undefined)
- TGI (SNB-19 CNS): > 100 µM
- TGI (XF 498 CNS): > 100 µM
- TGI (HT29 colon): > 100 µM
- TGI (OVCAR-8 ovarian): > 100 µM
- TGI (PC-3 prostate): > 100 µM
- TGI (UO-31 renal): > 100 µM
- TGI (M19-MEL melanoma): > 100 µM
- TGI (K-562 leukemia): > 100 µM
- TGI (EKVX NSCLC): > 100 µM
- TGI (A549 NSCLC): > 100 µM
- TGI (UACC-62 melanoma): > 100 µM
- TGI (NCI-H522 lung): > 100 µM
- TGI (SF-268 CNS): > 100 µM
- TGI (UACC-257 melanoma): > 100 µM
- TGI (OVCAR-3 ovarian): > 100 µM
- TGI (HL-60(TB) leukemia): > 74.5 µM
- TGI (OVCAR-5 ovarian): > 100 µM
- TGI (SF-539 CNS): > 100 µM
- TGI (SK-MEL-5 melanoma): > 100 µM
- TGI (MALME-3M melanoma): > 100 µM
- TGI (HCC-2998 colon): > 100 µM
- TGI (MCF7 breast): > 100 µM
- TGI (CCRF-CEM leukemia): > 100 µM
- TGI (SN12C renal): > 100 µM
- TGI (SK-MEL-2 melanoma): > 100 µM
- TGI (NCI-H460 lung): > 100 µM
- TGI (NCI-H226 lung): > 100 µM
- TGI (TK-10 renal): > 100 µM
- TGI (MDA-MB-231 breast): > 100 µM
- TGI (DU-145 prostate): > 100 µM
- TGI (SF-295 CNS): > 100 µM
- TGI (CAKI-1 renal): > 100 µM
- TGI (HCT-116 colon): > 100 µM
- TGI (HS 578T breast): > 100 µM
- TGI (HOP-62 NSCLC): > 100 µM
- TGI (DMS 114 small cell lung): > 100 µM
- TGI (A498 renal): > 100 µM
- TGI (SK-OV-3 ovarian): > 100 µM
- TGI (NCI/ADR-RES ovarian): > 100 µM
- TGI (SW-620 colon): > 100 µM
- TGI (KM20L2 colon): > 100 µM
- TGI (SNB-78 CNS): > 100 µM
- TGI (MOLT-4 leukemia): > 100 µM
- TGI (LXFL 529 NSCLC): > 100 µM
- TGI (T-47D breast): > 100 µM
- TGI (HOP-18 NSCLC): > 100 µM
- TGI (KM12 colon): > 100 µM
- TGI (M14 melanoma): > 100 µM
- TGI (RPMI-8226 leukemia): > 100 µM
- TGI (OVCAR-4 ovarian): > 100 µM
- TGI (BT-549 breast): > 100 µM
- TGI (786-0 renal): > 100 µM
- TGI (SK-MEL-28 melanoma): > 100 µM
- TGI (HCT-15 colon): > 100 µM
- TGI (SNB-75 CNS): > 100 µM
- TGI (LOX IMVI melanoma): > 100 µM
- TGI (IGROV1 ovarian): > 100 µM
- TGI (RXF 393 renal): > 100 µM
- TGI (MDA-MB-435): > 100 µM
- TGI (SR leukemia): > 100 µM
- TGI (DLD-1 colon): > 100 µM
- TGI (HOP-92 NSCLC): > 100 µM
- TGI (U251 CNS): > 100 µM
- TGI (NCI-H23 lung): > 100 µM
- TGI (MDA-N): > 100 µM
- TGI (COLO 205 colon): > 100 µM
- TGI (ACHN renal): > 100 µM

Compound: c1cc[c]([Pb]([c]2ccccc2)[c]2ccccc2)cc1
- GI50 (SNB-19 CNS): 16.5 µM
- TGI (SNB-19 CNS): 38.7 µM
- GI50 (XF 498 CNS): 23.9 µM
- TGI (XF 498 CNS): 42.7 µM
- GI50 (HT29 colon): 16.4 µM
- TGI (HT29 colon): 49.6 µM
- GI50 (OVCAR-8 ovarian): 12.4 µM
- TGI (OVCAR-8 ovarian): 72.5 µM
- GI50 (UO-31 renal): 26.8 µM
- TGI (UO-31 renal): 88.6 µM
- GI50 (K-562 leukemia): 11 µM
- TGI (K-562 leukemia): 61.4 µM
- GI50 (EKVX NSCLC): 25.2 µM
- TGI (EKVX NSCLC): 76.8 µM
- GI50 (A549 NSCLC): 60 µM
- TGI (A549 NSCLC): > 100 µM
- GI50 (UACC-62 melanoma): 6.1 µM
- TGI (UACC-62 melanoma): 19.8 µM
- GI50 (DMS 273 small cell lung): 10.4 µM
- TGI (DMS 273 small cell lung): 27.8 µM
- GI50 (NCI-H522 lung): 2.53 µM
- TGI (NCI-H522 lung): 15.1 µM
- GI50 (SF-268 CNS): 7.34 µM
- TGI (SF-268 CNS): 50.7 µM
- GI50 (UACC-257 melanoma): 19 µM
- TGI (UACC-257 melanoma): 59.1 µM
- GI50 (OVCAR-3 ovarian): 10.4 µM
- TGI (OVCAR-3 ovarian): 23.8 µM
- GI50 (HL-60(TB) leukemia): 41.9 µM
- TGI (HL-60(TB) leukemia): > 100 µM
- GI50 (OVCAR-5 ovarian): 11 µM
- TGI (OVCAR-5 ovarian): 34.9 µM
- GI50 (SF-539 CNS): 14.2 µM
- TGI (SF-539 CNS): 43.2 µM
- GI50 (SK-MEL-5 melanoma): 12.3 µM
- TGI (SK-MEL-5 melanoma): 32.6 µM
- GI50 (MALME-3M melanoma): 16.7 µM
- TGI (MALME-3M melanoma): 36.6 µM
- GI50 (HCC-2998 colon): 14.8 µM
- TGI (HCC-2998 colon): 37.3 µM
- GI50 (CCRF-CEM leukemia): 10.1 µM
- TGI (CCRF-CEM leukemia): > 100 µM
- GI50 (SN12C renal): 8.17 µM
- TGI (SN12C renal): 22.3 µM
- GI50 (SK-MEL-2 melanoma): 6.04 µM
- TGI (SK-MEL-2 melanoma): 24 µM
- GI50 (NCI-H460 lung): 20.2 µM
- TGI (NCI-H460 lung): > 100 µM
- GI50 (SF-295 CNS): 21.9 µM
- TGI (SF-295 CNS): 58.3 µM
- GI50 (CAKI-1 renal): 30 µM
- TGI (CAKI-1 renal): > 100 µM
- GI50 (HCT-116 colon): 10.5 µM
- TGI (HCT-116 colon): 27.1 µM
- GI50 (HOP-62 NSCLC): 36.9 µM
- TGI (HOP-62 NSCLC): 79.3 µM
- GI50 (DMS 114 small cell lung): 1.92 µM
- TGI (DMS 114 small cell lung): 12.7 µM
- GI50 (A498 renal): 16 µM
- TGI (A498 renal): 46.2 µM
- GI50 (SK-OV-3 ovarian): 11.2 µM
- TGI (SK-OV-3 ovarian): 38.2 µM
- GI50 (SW-620 colon): 21.2 µM
- TGI (SW-620 colon): 57.1 µM
- GI50 (KM20L2 colon): 23.3 µM
- TGI (KM20L2 colon): 91.6 µM
- GI50 (SNB-78 CNS): 13.2 µM
- TGI (SNB-78 CNS): > 100 µM
- GI50 (MOLT-4 leukemia): 15.7 µM
- TGI (MOLT-4 leukemia): 71.7 µM
- GI50 (LXFL 529 NSCLC): 4.03 µM
- TGI (LXFL 529 NSCLC): 17.2 µM
- GI50 (HOP-18 NSCLC): 16.8 µM
- TGI (HOP-18 NSCLC): 50.8 µM
- GI50 (KM12 colon): 23.4 µM
- TGI (KM12 colon): > 100 µM
- GI50 (M14 melanoma): 14.2 µM
- TGI (M14 melanoma): 47.4 µM
- GI50 (RPMI-8226 leukemia): 14.5 µM
- TGI (RPMI-8226 leukemia): 90 µM
- GI50 (OVCAR-4 ovarian): 22 µM
- TGI (OVCAR-4 ovarian): > 100 µM
- GI50 (786-0 renal): 11.4 µM
- TGI (786-0 renal): 33.2 µM
- GI50 (SK-MEL-28 melanoma): 16.5 µM
- TGI (SK-MEL-28 melanoma): 36.6 µM
- GI50 (HCT-15 colon): 12.4 µM
- TGI (HCT-15 colon): 28.4 µM
- GI50 (SNB-75 CNS): 6.8 µM
- TGI (SNB-75 CNS): 45 µM
- GI50 (LOX IMVI melanoma): 3.24 µM
- GI50 (IGROV1 ovarian): 10 µM
- TGI (IGROV1 ovarian): 32 µM
- GI50 (SR leukemia): 14.4 µM
- TGI (SR leukemia): 74.6 µM
- GI50 (DLD-1 colon): 11.9 µM
- TGI (DLD-1 colon): 29.6 µM
- GI50 (HOP-92 NSCLC): 10.7 µM
- TGI (HOP-92 NSCLC): 47.8 µM
- GI50 (U251 CNS): 11.3 µM
- TGI (U251 CNS): 23.9 µM
- GI50 (NCI-H23 lung): 3.34 µM
- TGI (NCI-H23 lung): 15.8 µM
- GI50 (COLO 205 colon): 14.8 µM
- TGI (COLO 205 colon): 30.3 µM
- GI50 (ACHN renal): 33.4 µM
- TGI (ACHN renal): > 100 µM
